Measured values reported in a compilation of properties of binary mixtures (doi:10.1021/je990084v).

Test: excess molar enthalpy (molar enthalpy of mixing); xn = mol fraction of the nth substance listed
Details: 298.15 K, 100 kPa

Structure (SMILES) | excess molar enthalpy (x2 = 0.0754) | excess molar enthalpy (x2 = 0.1116) | excess molar enthalpy (x2 = 0.2147) | excess molar enthalpy (x2 = 0.3102) | excess molar enthalpy (x2 = 0.5338) | excess molar enthalpy (x2 = 0.6007) | excess molar enthalpy (x2 = 0.677) | excess molar enthalpy (x2 = 0.214) | excess molar enthalpy (x2 = 0.3094) | excess molar enthalpy (x2 = 0.4262) | excess molar enthalpy (x2 = 0.5328) | excess molar enthalpy (x2 = 0.6067) | excess molar enthalpy (x2 = 0.6761) | excess molar enthalpy (x2 = 0.72)
CC(C)OC(C)C + CCCCO | 0.255 kJ/mol | 0.338 kJ/mol | 0.458 kJ/mol | 0.495 kJ/mol | 0.428 kJ/mol | 0.37 kJ/mol | 0.463 kJ/mol | – | – | – | – | – | – | –
CC(C)OC(C)C + CCC(C)O | – | – | – | – | – | – | – | 0.692 kJ/mol | 0.792 kJ/mol | 0.827 kJ/mol | 0.781 kJ/mol | 0.712 kJ/mol | 0.611 kJ/mol | 0.555 kJ/mol
